{"source": "patent US20060205810A1", "about": "“Platinum therapeutic combinations” (Schering Corporation, priority 2004, published 2006)", "origin": "cited, not measured here", "key": {"[1]": {"system": "intrinsic and acquired resistance to cisplatin", "conditions": "cell culture studies"}, "[2]": {"system": "human ovarian carcinoma cells"}, "[3]": {"system": "small cell lung cancer (SCLC)", "conditions": "small cell lung cancer patients"}, "[4]": {"conditions": "incubated with fresh human whole blood in vitro"}}}
{"compound": "N.NC1CCCCC1.[Cl-].[Cl-].[Pt+2]", "note": "[JM118]", "values": [{"measurement": "circumvention of resistance to cisplatin", "setting": "[1]", "value": "can partially circumvent intrinsic and acquired resistance to cisplatin"}, {"measurement": "cytotoxicity compared with cisplatin", "setting": "[2]", "value": "greater cytotoxicity than cisplatin"}]}
{"compound": "CC(=O)[O][Pt]([NH2])([Cl])([Cl])([NH]C1CCCCC1)[O]C(C)=O", "note": "[satraplatin]", "values": [{"measurement": "complete responses", "setting": "[3]", "value": "no complete responses"}, {"measurement": "median overall survival time", "setting": "[3]", "value": 210, "unit": "days"}, {"measurement": "tumor response rate", "setting": "[3]; 10 of 26", "value": 38, "unit": "%"}, {"measurement": "added platinum associated with red blood cells", "setting": "[4]", "value": 62, "unit": "%"}, {"measurement": "half-life for the disappearance of the drug", "setting": "[4]", "value": 6.3, "unit": "min"}, {"measurement": "circumvention of resistance to cisplatin", "setting": "[1]", "value": "can partially circumvent intrinsic and acquired resistance to cisplatin"}]}
